From patent US20250066286A1, “COMPOSITIONS OF (Z)-ENDOXIFEN AND METHODS OF ENRICHMENT THEREOF” (Atossa Therapeutics, Inc., priority 2022, published 2025)

How the values were obtained:
Format in all cases: physicochemical
[1] = Scale-up crystallizations of (Z)-endoxifen Form I, Form IV, Form VII (XRPD); settings: ethyl acetate 0.8 mL sat, heptane 4 mL, RT to −20 °C, 1 d
Description: The acetonitrile slurry method for generating Form I (EXAMPLE 5) was performed on a 800 mg-scale. For this crystallization, 800 mg (Z)-endoxifen was partially dissolved in 8 ml acetonitrile at a concentration of 100 mg/ml and left under magnetic stirring at 50° C. for 2 days. Solid (Z)-endoxifen was collected from the slurry and analyzed by XRPD, confirming that the resultant solid was Form I. The remaining slurry was then filtered with a 0.45p m paper filter under vacuum and analyzed by XRPD, which indicated a yield of 94% for the resultant Form I
The EXAMPLE 6 procedure for generating Form IV by precipitation from 2-propanol/ethyl acetate (50/50 v/v) systems was scaled to both 500 mg and 1 g. For these crystallizations, (Z)-endoxifen was added to 2-propanol/ethyl acetate 50/50 (v/v) mixtures to achieve concentrations of 100 mg/ml. The solvent mixtures were then heated to 65° C. Once complete dissolution of (Z)-endoxifen occurred, the solvent mixtures were cooled to 25° C. at a rate of 0.2° C./minute. The solutions were maintained at 25° C. with stirring for 18 hours, and then vacuum filtered with a 0.45 μm paper filter.
The ethyl acetate:heptane crystallizations outlined in EXAMPLE 10 were repeated at larger scales. […]

[2] = Precipitation of (Z)-endoxifen by cooling, gradient precipitation (XRPD); settings: GRAD
Description: Z)-endoxifen was precipitated by cooling various single and multi- solvent systems. […] The crystallizations utilized cooling rates of 0.5° C./minute or 0.2° C./minute. The samples were then incubated 25° C. with stirring for approximately 15 hours. Some solutions generated precipitate, which was recovered by filtration with a nylon filter (0.22 μm) during centrifugation at 4000 rpm for 3 minutes.
The resulting precipitate was recovered by filtration with a nylon filter (0.22 μm) during centrifugation at 4000 rpm for 3 minutes.
All precipitates were collected for XRPD analysis.

[3] = Slurries of (Z)-endoxifen in solvent mixtures (XRPD); settings: for Output Crystallinity [high/low/SC/oriented]: 50° C., 1 d
Description: Slurry experiments were performed with solvents with 50° C. (Z)-endoxifen was suspended in 500 μl of the solvent mixture to achieve the concentrations of 40 mg/ml or 100 mg/ml. The resultant solutions were stored at 50° C. for one day. For solvent mixtures which included acetone, the slurry was instead stored at 40° C. The suspensions were then recovered and filtered with a nylon filter (0.22 μm) during centrifugation at 4000 rpm for 3 minutes, and the collected solid (Z)-endoxifen was analyzed by XRPD as shown in FIG. 85-FIG. 91 and FIG. 1-FIG. 5.

[4] = 2-propanol 0.5 mL, 20 mg/mL, 75 to 25 °C, ramp −0.2
[5] = acetone 0.5 mL, 20 mg/mL, 25 to −20 °C, ramp not controlled, 3 d
[6] = acetonitrile 0.5 mL, 20 mg/mL, 75 to 25 °C, ramp −0.2
[7] = butyl acetate 0.5 mL, 100 mg/mL, 100 to 25 °C, ramp −0.2
[8] = ethanol 0.5 mL, 20 mg/mL, 75 to 25 °C, ramp −0.2

For CC/C(=C(\c1ccc(O)cc1)c1ccc(OCCNC)cc1)c1ccccc1 [(Z)-endoxifen, (Z)-4-(1-(4-(2-(methylamino)ethoxy)phenyl)-2-phenylbut-1-enyl)phenol], the “XRPD Results Phase in traces” value ([1]; PAD-GRAD) was “Form XVI”, the “XRPD Results Phase in traces” value ([1]; PAI-GRAD) was “Form IX” and the “Output Crystallinity [high/low/SC/oriented]” value [2, 4] was “low”. The “Output Main phase [phase]” value [2, 4] was “Form I”, the “Output Main phase [phase]” value ([2]; 2-propanol 0.5 mL, 100 mg/mL, 75 to 25 °C, ramp −0.2) was “Form I” and the “Output Crystallinity [high/low/SC/oriented]” value [2, 5] was “low”. The “Output Main phase [phase]” value [2, 5] was “Form I”, the “Output Crystallinity [high/low/SC/oriented]” value [2, 6] was “low” and the “Output Main phase [phase]” value [2, 6] was “Form V”. For the same compound, the “Output Crystallinity [high/low/SC/oriented]” value [2, 7] was “low”, the “Output Main phase [phase]” value [2, 7] was “Form I” and the “Output Crystallinity [high/low/SC/oriented]” value [2, 8] was “low”. For the same compound, the “Output Main phase [phase]” value [2, 8] was “Form I”, the “Output Main phase [phase]” value ([2]; ethanol 0.5 mL, 100 mg/mL, 75 to 25 °C, ramp −0.2) was “Form I” and the “Output Main phase [phase]” value ([2]; ethyl acetate 0.5 mL, 100 mg/mL, 75 to 25 °C, ramp −0.2) was “Form I”. For the same compound, the “Output Main phase [phase]” value ([2]; methyl isobutyl ketone 0.5 mL, 100 mg/mL, 25 to −20 °C, ramp not controlled, 1 d) was “Form X”, the “Output Crystallinity [high/low/SC/oriented]” value ([3]; SLHT-1D-H2O/THF(40 mg/ml), FIG. 3: water/tetrahydrofuran 95/5, 40 mg/mL) was “low” and the “Output Crystallinity [high/low/SC/oriented]” value ([3]; SLHT-1D-HEP/TOL(100 mg/ml), FIG. 89: heptane/toluene 50/50, 100 mg/mL) was “low”. For the same compound, the “Polymorphic form recovered (XRPD)” value ([3]; all solvent mixture slurries, 40 or 100 mg/ml, 50° C. (40° C. with acetone), one day) was “Form I with varying degrees of purity”.
